In paper PMC10097024, “Cytotoxic and Antibacterial Prenylated Acylphloroglucinols from Hypericum olympicum L” (Plants, 2023):
Where “and” joins values, the source holds several entries; their conditions need not be identical. Equal values may be shown once. Read-outs that look alike come from different tables or passages of the source.

How the values were obtained:
[1] = tested on: MDA-MB-231; assay: Antiproliferative test (NCI methodology); format: cell-based, human; conditions: for GI50: MDA-MB-231, MTT readout; for TGI: MDA-MB-231, total growth inhibition
Text: (§1) The group of human cell lines used in this study were represented by the tumor cell lines MDA-MB (breast carcinoma), EJ (urinary bladder carcinoma), K-562 (chronic myeloid leukemia), HL-60 (acute pre-myeloid leukemia), HL-60/DOX (multi-drug resistant HL-60 cell line, with over expression of MRP-1) and the non-tumorigenic cell lines HEK-293 (embryonic kidney cells) and EA.hy926 (vascular endothelial cells). EJ, HL60 and EA.hy926 were purchased from American Type Culture Collection (ATCC) (Manassas, Virginia). The other cell lines were purchased from the German Collection of Microorganisms and Cell Cultures (DSMZ GmbH, Braunschweig, Germany). HL-60/DOX cell lines were generated by periodically treating HL-60 cells with anthracyclins. The conditions in which the cell culture flasks were maintained were as follows: 37 °C in an incubator “BB 16-Function Line” Heraeus (Kendro, Hanau, Germany) with 5% CO2 humidified atmosphere. The growth medium was 90% RPMI-1640, supplemented with 10% FBS and 2 mM L-glutamine. MDA-MB-231, EJ, HEK-293 and EA.hy926 cells were maintained as adherent monolayer cultures while all the other (leukemic) cell lines were grown as suspension type cultures. Cells were maintained in log phase: the adherent cell lines were subjected to trypsinization 1–2 times a week and the leukemic cell lines were passaged 2–3 times a week by removing of part of the cellular suspension and substituting it with fresh medium.
The test was performed according the methodology of National Cancer Institute (NCI), USA [116]. Briefly, cells were seeded into 96-well plates in the same way as for an MTT test and after 24 h, the absorption of one plate of each cell line was measured as in the MTT assay described above, to represent a measurement of the cell population at the time of drug-addition (Tz). The rest of the plates were treated with the tested compounds and the experiment for them continued as the MTT-method. Using the absorbance measurements [(Tz, untreated control growth (C) and test growth in the present of the compounds (Ti)], the percentage growth is calculated at each of the tested concentrations of the compounds. Percentage growth inhibition (GI) is calculated as GI%=Ti−Tz/C−Tz×100 for concentrations for which Ti ≥ Tz. For concentrations in which Ti < Tz it is calculated as GI%=Ti−Tz/Tz×100 . Two dose parameters are calculated for each experimental agent. Growth inhibition of 50% (GI50) is calculated from Ti−Tz/C−Tz×100=50 . This is the drug concentration resulting in a 50% reduction in the net protein increase (as measured by MTT-test) in control cells during the drug incubation. The drug concentration resulting in total growth inhibition (TGI) is calculated from Ti = Tz.

[2] = tested on: Staphylococcus aureus—MRSA (NBIMCC 8327); assay: MIC by broth microdilution; format: cell-based
Text: (§2) The Gram-positive bacterial strains that were examined for susceptibility were: Staphylococcus aureus (ATCC 29213, American Type Cell Culture Collection, Manassas, VA, USA), Staphylococcus aureus—MRSA (NBIMCC 8327-resistant to methicillin and oxacillin, National Bulgarian Collection for Industrial Microorganisms and Cell Cultures, Sofia, Bulgaria), Enterococcus faecalis (ATCC 29212) and Streptococcus pyogenes (SAIMC 10535, Collection of the Stephan Angeloff Institute of Microbiology, Sofia, Bulgaria). The only Gram-negative bacterial strain used was Escherichia coli (ATCC 35218). Bacteria were maintained in Trypticase Soy Broth (TSB, Himedia, India) at 37 °C, aerobic conditions. For the experiments brain heart infusion (BHI) broth (#M210 HiMedia, Mumbai, India) was used for E. faecalis and S. pyogenes and Mueller Hinton broth (MHB, #M0405B) from Thermo Scientific-Oxoid (Basingstoke, UK)—for all other strains.
(§3) BMD was performed according to the following protocol of ISO 20776/1-2006 [117]. A bacterial suspension with density of 10^8 CFU/mL (0.5 McFarland standard, OD600) was prepared from an overnight grown liquid bacterial culture homogenized over vortex and brought to a working bacterial suspension (WBS) with concentration of 5×10^5 CFU/mL by being diluted 200× with MHB or BHI broth and homogenized over vortex again. Two-fold serial dilutions of compounds 3–5 was prepared in 96-well round bottom plates to a volume of 50 μL and final range of concentrations 100–0.2 μg/mL. Stock solutions were dissolved in ethanol and MHB was used as diluent and as test for absence of contamination. Three wells were left as blank samples and 6 wells were left for control samples. An equivalent volume (50 μL) of the WBS was inoculated to each well in the aforementioned plates achieve final bacterial density of […] with the exception of the blank wells. After 18–24 h incubation under aerobic standardized conditions at 37 °C the plates were examined. […] Antibiotics dissolved in sterile distilled water were used as referent positive controls. They were penicillin G (PEN, #B0500000, Merck KGaA, Darmstadt, Germany) for E. faecalis and S. pyogenes, gentamicin (GEN, #15750-037, 50 mg/mL, Gibco, Paisley, UK) for all bacteria except S. pyogenes and ciprofloxacin (CIP, Ciproflav:10 mg/mL, Polfa S.A. Warsaw Pharmaceutical Works, Starogard Gdanski, Poland) for E. faecalis. The range of concentrations were 0.004–2 mg/L for PEN, 0.008–4 mg/L for GEN and 0.005–2 mg/L for CIP. The requirements of EUCAST (European Committee on Antimicrobial Susceptibility Testing) for their MICs were followed for discussing the results. In the end the plates which contained active agents were subjected to assessment of the dehydrogenase activity of the bacteria.

[3] = tested on: Staphylococcus aureus (ATCC 29213); assay: MIC by broth microdilution; format: cell-based
Text: as §2, §3

[4] = tested on: Enterococcus faecalis (ATCC 29212); assay: MIC by broth microdilution; format: cell-based
Text: as §2, §3

[5] = tested on: Streptococcus pyogenes (SAIMC 10535); assay: MIC by broth microdilution; format: cell-based
Text: as §2, §3

[6] = tested on: human tumor (MDA-MB-231, EJ, K-562, HL-60 and HL-60/DOX) cell lines; assay: MTT cytotoxicity test, tumor cell line panel; format: cell-based
Text: as §1
The evaluation of cytotoxic activity was conducted by MTT test as described previously. The median inhibitory concentration (IC50) values which represent the half-maximal concentration values were calculated from sigmoidal concentration–response curves, using non-linear regression analysis (Curve fit, GraphPad Prizm 5.0 software, GraphPad Software Inc., San Diego, CA, USA). The selectivity index was calculated as the ratio of the IC50 of a non-cancerous line (HEK-293 or EA.hy926) and the average IC50 of all chemosensitive tested tumor cell lines (x). Therefore, SI=IC50HEK-293/IC50x . The resistance index (RI) was calculated as the ratio of IC50 of the multi-drug resistant HL-60/DOX cell line and the IC50 of its parent cell line: RI=IC50HL-60/DOX/IC50HL-60 .

[7] = Homo sapiens, average IC50 of all chemo-sensitive tested tumor cell lines, read-out: x

Molecule	GI50 ([1]; Homo sapiens) [nM]	TGI [1] [nM]	MIC ([2]; read-out: MIC)	MIC [3] [mg/L]	MIC ([3]; read-out: MIC) [µM]	MIC ([4]; ATCC29212, read-out: MIC)	MIC ([5]; read-out: MIC)	IC50 [6, 7] [nM]	GI50 [1] [nM]	MIC [2] [mg/L]	MIC [4] [mg/L]	MIC ([4]; read-out: MIC) [µM]	MIC [5] [mg/L]	IC50 ([6]; average IC50 of all chemo-sensitive tested tumor cell lines, read-out: x) [nM]	MIC ([3]; ATCC29213, Staphylococcus aureus, read-out: MIC)	IC50 ([6]; Homo sapiens, tumor cell lines, MTT assay, read-out: IC50 (range over the tumor cell lines)) [nM]
CC(C)=CCC[C@]1(C)[C@@H](CC=C(C)C)C[C@]2(C)C(=O)C(CC=C(C)C)=C(O)[C@@]1(C(=O)C(C)C)C2=O [Compound 3, hyperpolyphyllirin/hyperibine J]	1930	2960	8 µg/mL and 16.6 µM	2.00	4.14	8 µg/mL and 16.6 µM	31 µg/mL and 64.2 µM	6180								
(1R,5R,7S,8R)-4-hydroxy-5,8-dimethyl-3,7-bis(3-methylbut-2-en-1-yl)-1-(2-methylbutanoyl)-8-(4-methylpent-3-en-1-yl)bicyclo[3.3.1]non-3-ene-2,9-dione [Compound 4]		810	25.17 µM	0.78	1.57		25.17 µM		520	12.5	12.5	25.17	12.50	15000		
CC(C)=CCC[C@]1(C)[C@@H](CC=C(C)C)C[C@H]2C(=O)[C@]1(C(=O)C(C)C)C(=O)C(CC=C(C)C)=C2O [Compound 5, (1S,5R,7S,8R)-4-hydroxy-1-isobutyryl-8-methyl-3,7-bis(3-methylbut-2-en-1-yl)-8-(4-methylpent-3-en-1-yl)bicyclo[3.3.1]non-3-ene-2,9-dione]			1 µg/mL and 2.14 µM	1.00	2.14	4 µg/mL and 8.53 µM	4 µg/mL and 8.53 µM	1320		1.00					0.78 µg/mL to 2 µg/mL and 1.57 µM to 4.14 µM	1160 to 1710
